This is an account of results in PMC2362861, “Potent interaction of flavopiridol with MRP1” (British Journal of Cancer, 1999).

SMILES strings stand for the structures. Like-named read-outs stand apart in the source and are kept apart here.

The test system of one data set is GLC4 cells. Briefly: Steady-state cellular [3H]daunorubicin accumulation in GLC4 cells. The class given is cell-based, human. The conditions noted are these: for Accumulation of daunorubicin, mean percentages of control (set at 100%): GLC4, (iso)flavonoid 50 µM (μM), 0.5 M DNR, 75 min; for Effect on accumulation of DNR in GLC4 cells: 50 µM (μM).
The test system of a further data set is GLC4/ADR cells. Briefly: Steady-state cellular [3H]daunorubicin accumulation in GLC4/ADR cells. The class given is cell-based, human. The conditions noted are these: for Effect on accumulation of DNR in GLC4/ADR cells: 50 µM (μM); for Accumulation of daunorubicin, mean percentages of control (set at 100%): (iso)flavonoid 50 µM (μM), 0.5 M DNR, 75 min.
Another data set has as its target T1, MRP1 ATPase activity (Homo sapiens, UniProt P33527).
T1 construct: plasma membrane vesicles prepared from the MRP1 overexpressing cell line GLC4/ADR; endogenous in cells; host or cells: GLC4/ADR (adriamycin-selected human small-cell lung cancer subline); plasma membrane vesicles
Put plainly: ATPase activity of GLC4/ADR plasma membranes (colourimetric inorganic phosphate). The conditions noted are these: for Induction of ATPase activity of GLC4/ADR membranes in the concentration range tested: glycosylated (iso)flavonoids, Figure 4. The class given is biochemical. The text has this: One form of cellular resistance, directed against a wide spectrum of natural agents, is referred to as multidrug resistance (MDR). […] The ATP-dependent transport of anticancer drugs out of tumour cells that express MDR proteins may at least theoretically lead to impaired treatment outcome of patients. […] 1-Chloro-2,4-dinitrobenzene (CDNB) was from Sigma (St Louis, MO, USA). […] The isoflavonoid genis- tein was from ICN Biomedicals (Zoetermeer, The Netherlands). […] The (iso)flavonoids were dissolved as a stock solution of 40 mM in dimethyl sulphoxide (DMSO; Across Chimica, Belgium) and stored at -20C. Before experiments, 1:1 dilutions were made in ethanol, followed by a dilution in ethanol/water (1: 3; v/v) to the appropriate concentrations. The maximal concentration of DMSO and ethanol, which was also added to the controls, was 0.5% (v/v). Membrane filters OE67 were from Schleicher and Schuell (Dassel, Germany). Doxorubicin hydrochloride was from Laboratoire Roger Bellon (France). […] S1(MRP1) cells were cultured in the presence of G418 until 2-10 days before experiments. […] Cells were harvested by centrifugation (275 g, 5 min) and washed twice in phosphate-buffered saline. Subsequently, the cells were incubated in 100 mM potassium chloride (KCl), 5 mM magnesium chloride (MgCl2 ), 1 mM phenylmethylsulphonyl fluoride and 50 mM HEPES-KOH (pH 7.4) for 1 h at 0C, in order to allow the cells to swell. Then the cells were ultrasonicated at 20% of the maximum power of an MSE sonicator (Soniprep 150) for three bursts of 15 s. The suspension was centrifuged at 1500 g for 10 min. […] After centrifugation at 100 000 g for 60 min the interface was removed and washed in 100 mM KC1-50 mM HEPES-5 mM MgCl2 buffer (pH 7.4). The final membrane preparations were stored at -80C at a protein concentration of ~ 4 mg ml-1 . […] Vesicles were incubated in KCl-HEPES buffer (pH 7.4) at 37C (protein concentration ~ 0.25 mg ml-1 ), in the presence of 10 mM MgCl2 with or without 1 mM ATP and tritium-labelled DNP-SG. The reaction was stopped by adding ice-cold KCl-HEPES buffer. After rapid filtration, the filters were washed twice with KCl-HEPES buffer. The radioactivity on the filters was measured by liquid scintillation counting. […] Plasma membranes were incubated for 1 h in KCl-HEPES buffer (pH 7.4) at 37C, in the presence of 1 mM EGTA, 1 mM sodium azide and 0.1 mM ouabain, with or without 1 mM ATP. […] Plasma membranes from GLC4 cells (black bars) and GLC4 /ADR cells (white bars) were incubated with 10 nM DNP-SG in the absence or presence of the MIB6 antibody (MIB6) (10 g ml-1 ) or an MRP1 control antibody (10 g ml-1 ). […] In short, anti-MRP1 antibodies were tested for their capacity to inhibit DNP-SG transport into GLC4 /ADR inside-out plasma membrane vesicles.

The next data set addresses T2, MRP1 (Homo sapiens, UniProt P33527).
T2 construct: using MRP1-transfected cells and several couples of MRP1 overexpressing cell lines and their parental cell lines; endogenous in cells; host or cells: GLC4, GLC4/ADR, HL60, HL60/ADR and SW1573 (endogenous)
Briefly: ATP-dependent uptake of DNP-SG into GLC4/ADR plasma membrane vesicles. The class given is biochemical. To be noted: using 100 nM DNP-SG. The text has this:
One form of cellular resistance, directed against a wide spectrum of natural agents, is referred to as multidrug resistance (MDR). […] The ATP-dependent transport of anticancer drugs out of tumour cells that express MDR proteins may at least theoretically lead to impaired treatment outcome of patients. […] 1-Chloro-2,4-dinitrobenzene (CDNB) was from Sigma (St Louis, MO, USA). […] The isoflavonoid genis- tein was from ICN Biomedicals (Zoetermeer, The Netherlands). […] The (iso)flavonoids were dissolved as a stock solution of 40 mM in dimethyl sulphoxide (DMSO; Across Chimica, Belgium) and stored at -20C. Before experiments, 1:1 dilutions were made in ethanol, followed by a dilution in ethanol/water (1: 3; v/v) to the appropriate concentrations. The maximal concentration of DMSO and ethanol, which was also added to the controls, was 0.5% (v/v). Membrane filters OE67 were from Schleicher and Schuell (Dassel, Germany). Doxorubicin hydrochloride was from Laboratoire Roger Bellon (France). […] S1(MRP1) cells were cultured in the presence of G418 until 2-10 days before experiments. […] Cells were harvested by centrifugation (275 g, 5 min) and washed twice in phosphate-buffered saline. […] The radioactivity on the filters was measured by liquid scintillation counting. […]

Another data set has as its system SW1573. Briefly: Growth inhibition assay, SW1573. The class given is cell-based. The conditions noted are these: Homo sapiens, read-out: IC50 value.
Another data set deals with S1(MRP). Put plainly: Growth inhibition assay, S1(MRP). The class given is cell-based, human. To be noted: Homo sapiens, 72 h; S1(MRP); 3 days drug exposure; read-out: IC50 value.
The test system of another data set is GLC4. Briefly: Growth inhibition assay, GLC4. The class given is cell-based, human. The conditions noted are these: for IC50: Homo sapiens, read-out: IC50 value.
A further data set deals with GLC4/ADR. Briefly: Growth inhibition assay, GLC4/ADR. The class given is cell-based, human. To be noted: for Resistance of MRP1 overexpressing cells: 72-h exposures; for IC50: Homo sapiens, GLC-4/ADR, 72 h, read-out: IC50 value.
Another data set relates to S1(1.1). Briefly: Growth inhibition assay, S1(1.1). The class given is cell-based. The conditions noted are these: Homo sapiens, 72 h, read-out: IC50 value.

T1 sequence (P33527 whole entry): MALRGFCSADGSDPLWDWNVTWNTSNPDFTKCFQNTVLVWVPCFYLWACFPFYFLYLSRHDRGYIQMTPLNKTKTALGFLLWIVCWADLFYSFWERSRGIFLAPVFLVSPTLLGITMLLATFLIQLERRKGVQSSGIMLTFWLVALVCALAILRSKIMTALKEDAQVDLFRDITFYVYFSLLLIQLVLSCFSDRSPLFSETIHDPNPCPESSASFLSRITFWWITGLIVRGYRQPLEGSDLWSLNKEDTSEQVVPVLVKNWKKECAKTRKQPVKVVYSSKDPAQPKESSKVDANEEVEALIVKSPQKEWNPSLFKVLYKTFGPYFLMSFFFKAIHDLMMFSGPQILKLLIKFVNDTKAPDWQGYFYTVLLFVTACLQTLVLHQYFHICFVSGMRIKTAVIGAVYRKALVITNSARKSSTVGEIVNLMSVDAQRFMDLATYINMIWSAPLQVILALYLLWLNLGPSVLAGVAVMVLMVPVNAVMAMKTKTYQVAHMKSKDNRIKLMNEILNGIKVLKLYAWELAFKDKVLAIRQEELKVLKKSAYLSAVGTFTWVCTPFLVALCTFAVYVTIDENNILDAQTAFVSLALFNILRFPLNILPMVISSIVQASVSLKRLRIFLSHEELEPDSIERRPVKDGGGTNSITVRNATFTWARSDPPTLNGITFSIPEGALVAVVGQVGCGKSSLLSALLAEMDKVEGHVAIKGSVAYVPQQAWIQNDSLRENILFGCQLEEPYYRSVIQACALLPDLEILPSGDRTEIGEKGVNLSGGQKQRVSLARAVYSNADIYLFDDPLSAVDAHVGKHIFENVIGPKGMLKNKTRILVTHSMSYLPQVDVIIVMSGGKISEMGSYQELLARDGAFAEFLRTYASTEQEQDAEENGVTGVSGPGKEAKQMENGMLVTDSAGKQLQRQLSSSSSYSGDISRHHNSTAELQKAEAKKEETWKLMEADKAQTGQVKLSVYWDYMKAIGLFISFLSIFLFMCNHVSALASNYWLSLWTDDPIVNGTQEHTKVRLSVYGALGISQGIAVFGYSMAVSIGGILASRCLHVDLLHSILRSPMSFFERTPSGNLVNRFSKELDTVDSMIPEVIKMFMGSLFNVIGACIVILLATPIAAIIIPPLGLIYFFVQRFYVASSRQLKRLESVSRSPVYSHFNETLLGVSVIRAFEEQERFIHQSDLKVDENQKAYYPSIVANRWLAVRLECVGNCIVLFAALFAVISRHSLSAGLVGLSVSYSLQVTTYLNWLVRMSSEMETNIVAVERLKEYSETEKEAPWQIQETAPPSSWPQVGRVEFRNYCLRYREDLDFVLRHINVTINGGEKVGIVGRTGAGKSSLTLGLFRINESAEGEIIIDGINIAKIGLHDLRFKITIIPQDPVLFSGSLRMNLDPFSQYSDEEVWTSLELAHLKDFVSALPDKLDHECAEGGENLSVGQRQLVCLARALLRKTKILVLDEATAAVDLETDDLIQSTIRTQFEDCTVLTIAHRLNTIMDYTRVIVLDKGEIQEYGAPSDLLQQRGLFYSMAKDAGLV
T2 sequence (P33527 whole entry): as above

With `O=c1cc(-c2ccc(O)cc2)oc2cc(O)cc(O)c12` [Apigenin, apigenin], the “Accumulation of daunorubicin, mean percentages of control (set at 100%)” value in the data set on GLC4 cells is reported as 91%. Also, the “Effect on accumulation of DNR in GLC4/ADR cells” value (“Effect … in GLC4/ADR cells” for short) in the data set with GLC4/ADR cells is on record as “increased the accumulation of DNR”.

On to `O=c1cc(-c2ccc(O)cc2)oc2cc(O[C@@H]3O[C@H](CO)[C@@H](O)[C@H](O)[C@H]3O)cc(O)c12` [Apigetrin, apigenin-7-glucose], for which the “Effect on accumulation of DNR in GLC4 cells” value in the data set on GLC4 cells is “small, but significant decrease”. Moreover, the “Effect … in GLC4/ADR cells” value with GLC4/ADR cells is recorded as “did not increase accumulation of DNR”. Further, the “Accumulation of daunorubicin, mean percentages of control (set at 100%)” value with GLC4/ADR cells (GLC4/ADR) is 57%. The “Induction of ATPase activity of GLC4/ADR membranes in the concentration range tested” value at MRP1 ATPase activity is listed as “did not induce ATPase activity”.

Regarding `N[C@@H](CCC(=O)N[C@@H](CSc1ccc([N+](=O)[O-])cc1[N+](=O)[O-])C(=O)NCC(=O)O)C(=O)O` [DNP-SG, dinitrophenyl-S-glutathione], the “Stimulation of basal ATPase activity of GLC4/ADR membranes above the control” value at MRP1 ATPase activity (10 M DNP-SG (μM)) stood at 4.5 nmol mg protein-1 min-1. Further, at MRP1 ATPase activity (10 M DNP-SG (μM), without MIB6), the “ATPase activity stimulation compared to the control” value worked out at 125%. For the same compound, the “ATP-dependent uptake of DNP-SG into GLC4/ADR vesicles” value on MRP1 is listed as 490 pmol mg protein-1 min-1.

As usually defined, the IC50 is the concentration that gives 50% inhibition. As for `O=c1c(-c2ccc(O)cc2)coc2cc(O)cc(O)c12` [Genistein, genistein], the “Accumulation of daunorubicin, mean percentages of control (set at 100%)” value with GLC4 cells amounted to 107%. Moreover, the “Effect … in GLC4/ADR cells” value with GLC4/ADR cells is given as “increased the accumulation of DNR”. For the same compound, the “Difference of DNR accumulation from control (P < 0.05)” value with GLC4/ADR cells (GLC4/ADR, 10 M genistein (μM), Figure 6) is reported as “gave a significant difference”. Also, in the data set on GLC4/ADR cells (GLC4/ADR, Figure 6), the “Modulation of cellular accumulation of DNR at low micromolar concentrations” value is “did not modulate”. Moreover, the “ATPase stimulation, % of the control” value on MRP1 ATPase activity (50 µM genistein (μM), without MIB6) came to 108%. The compound also registered a Concentrations at which ATPase activity of GLC4/ADR membranes was significantly induced on MRP1 ATPase activity (GLC4/ADR membranes, lowest effective concentration and higher) not below 1 µM. Further, the IC50 amounted to 10 µM with SW1573 (72 h, SW1573, 3 days drug exposure); 9 µM in the data set with S1(MRP); 12 µM with GLC4 (72 h, GLC4, 3 days drug exposure); 13 µM with GLC4/ADR (GLC4/ADR, 3 days drug exposure); 9 µM in the data set on S1(1.1) (S1(1.1), 3 days drug exposure). Further, the “Resistance of MRP1 overexpressing cells” value in the data set with GLC4/ADR was “No resistance”.

For `O=c1c(-c2ccc(O)cc2)coc2cc(O[C@@H]3O[C@H](CO)[C@@H](O)[C@H](O)[C@H]3O)cc(O)c12` [Genistin, genistein-7-glucose], the “Accumulation of daunorubicin, mean percentages of control (set at 100%)” value worked out at 101% in the data set with GLC4 cells and 96% in the data set with GLC4/ADR cells (GLC4/ADR). In addition, the “Effect … in GLC4/ADR cells” value in the data set on GLC4/ADR cells is on record as “did not increase accumulation of DNR”. The “Induction of ATPase activity of GLC4/ADR membranes in the concentration range tested” value at MRP1 ATPase activity is recorded as “did not induce ATPase activity”.

In the case of `O=c1c(O)c(-c2ccc(O)cc2)oc2cc(O)cc(O)c12` [Kaempferol, kaempferol], the “Accumulation of daunorubicin, mean percentages of control (set at 100%)” value stood at 92% in the data set with GLC4 cells and 190% in the data set on GLC4/ADR cells (GLC4/ADR). In the data set on GLC4/ADR cells, the “Effect … in GLC4/ADR cells” value was “increased the accumulation of DNR”. Also, the IC50 in the data set on SW1573 (SW1573, 72 h) was 29 µM; with GLC4 (GLC4, 72 h), 25 µM; with GLC4/ADR, 11 µM; in the data set with S1(1.1) it was 43 µM. For the same compound, the “Resistance of MRP1 overexpressing cells” value in the data set with GLC4/ADR is listed as “No resistance”.

Consider `O=c1c(O[C@@H]2O[C@H](CO)[C@@H](O)[C@H](O)[C@H]2O)c(-c2ccc(O)cc2)oc2cc(O)cc(O)c12` [Kaempferol-3 glucose, kaempferol-3-glucose], for which the “Effect on accumulation of DNR in GLC4 cells” value with GLC4 cells is “small, but significant decrease”. Further, the “Effect … in GLC4/ADR cells” value in the data set with GLC4/ADR cells is “did not increase accumulation of DNR”.

`CCCN(CCC)S(=O)(=O)c1ccc(C(=O)O)cc1` [probenecid]: the “Effect of simultaneous incubation with probenecid on the cytotoxic effect of flavopiridol” value in the data set on GLC4 (GLC4, probenecid 0.5 mM, data not shown) was “did not alter”; with GLC4/ADR (GLC4/ADR, probenecid 0.5 mM, data not shown) it was “did not alter”.
